This note sets out measurements from patent US9242984B2, “Pyrazolyl derivatives as Syk inhibitors” (Merck Sharp & Dohme Corp., priority 2012, dated 2016).

pIC50: −log10 of the molar value.

In the assay the target is T1, recombinant human Syk (GST-hSyk fusion protein) (Homo sapiens, UniProt P43405).
T1 construct: purchased Carna Biosciences 08-176
In words: Homogeneous Time-Resolved Fluorescence (HTRF) assay for the recombinant human Syk enzyme. Particulars: IC50 class; 10-dose titration, 25 μM ATP; read-out: rhSYK Activity. Type of assay: biochemical. The method in brief: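 GST-hSyk (5 pM) preincubated 10 min with compound (0.1% DMSO) in 15 mM Tris-HCl pH 7.5, 2 mM DTT; reaction started with 250 nM biotinylated peptide, 5 mM Mg, 25 μM ATP, 45 min, room temperature. EDTA quench, Eu-anti-phosphotyrosine/SA-APC HTRF read after 30 min; IC50 from 10-dose titration (10 μM–0.508 nM), four-parameter fit.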
(Time-resolved FRET reads energy transfer from a long-lived donor to a nearby acceptor.)
Turning to `Cc1cc(Nc2nccc(C)n2)cc(-c2cnn(C[C@H](O)C(N)=O)c2)c1` [Example 6.3, (2S)-2-hydroxy-3-(4-{3-methyl-5-[(4-methylpyrimidin-2-yl)amino]phenyl}-1H-pyrazol-1-yl)propanamide], the pIC50 is no less than 7.00.

For `COc1ccnc(Nc2cc(C)cc(-c3cnn(C[C@H](O)C(N)=O)c3)c2)n1` [Example 6.4, (2S)-2-hydroxy-3-(4-{3-[(4-methoxypyrimidin-2-yl)amino]-5-methylphenyl}-1H-pyrazol-1-yl)propanamide], the pIC50 is no less than 7.00.

Regarding `Cc1cc(Nc2nccc(C3CC3)n2)cc(-c2cnn(C[C@H](O)C(N)=O)c2)c1` [Example 6.5, (2S)-3-(4-{3-[(4-cyclopropyl-pyrimidin-2-yl)amino]-5-methylphenyl}-1H-pyrazol-1-yl)-2-hydroxypropan-amide], the pIC50 was no less than 7.00.

For the compound `Cc1cc(Nc2nccc(OC(C)C)n2)cc(-c2cnn(C[C@H](O)C(N)=O)c2)c1` [Example 6.6, (2S)-2-hydroxy-3-[4-(3-methyl-5-{[4-(1-methyl-ethoxy)pyrimidin-2-yl]amino}-phenyl)-1H-pyrazol-1-yl]-propanamide], the pIC50 is no less than 7.00.

Take `Cc1cc(Nc2nccc(C(C)(C)C)n2)cc(-c2cnn(C[C@H](O)C(N)=O)c2)c1` [Example 6.7, (2S)-3-(4-{3-[(4-tert-butyl-pyrimidin-2-yl)amino]-5-methylphenyl}-1H-pyrazol-1-yl)-2-hydroxy-propanamide]: the pIC50 was no less than 7.00.

Turning to `Cc1cc(Nc2nccc(C(C)F)n2)cc(-c2cnn(C[C@H](O)C(N)=O)c2)c1` (stereo partly drawn) [Example 6.8, (2S)-3-[4-(3-{[4-(1-fluoroethyl)-pyrimidin-2-yl]amino}-5-methylphenyl)-1H-pyrazol-1-yl]-2-hydroxy-propanamide], the pIC50 is no less than 7.00.

Regarding `Cc1cc(Nc2nccc(C(C)C)n2)cc(-c2cnn(C[C@H](O)C(N)=O)c2)c1` [Example 6.9, (2S)-2-hydroxy-3-[4-(3-methyl-5-{[4-(1-methyl-ethyl)pyrimidin-2-yl]-amino}phenyl)-1H-pyrazol-1-yl]propanamide], the pIC50 is no less than 7.00.

For `Cc1cc(Nc2nccc(C(F)(F)F)n2)cc(-c2cnn(C[C@H](O)C(=O)NCCCN3CCCC3=O)c2)c1` [Example 6.10, (2S)-2-hydroxy-3-[4-(3-methyl-5-{[4-(trifluorometh-yl)pyrimidin-2-yl]amino}phenyl)-1H-pyrazol-1-yl]-N-[3-(2-oxopyrrolidin-1-yl)propyl]propan-amide], the pIC50 was 6.00 to 7.00.

`CNC(=O)[C@@H](O)Cn1cc(-c2cc(C)cc(Nc3nccc(C(F)(F)F)n3)c2)cn1` [Example 6.11, (2S)-2-hydroxy-N-methyl-3-[4-(3-methyl-5-{[4-(trifluorometh-yl)pyrimidin-2-yl]amino}phenyl)-1H-pyrazol-1-yl]propanamide]: the pIC50 is no less than 7.00.

In the case of `COCCCNC(=O)[C@@H](O)Cn1cc(-c2cc(C)cc(Nc3nccc(C(F)(F)F)n3)c2)cn1` [Example 6.12, (2S)-2-hydroxy-N-(3-methoxypropyl)-3-[4-(3-methyl-5-{[4-(trifluorometh-yl)pyrimidin-2-yl]amino}phenyl)-1H-pyrazol-1-yl]propanamide], the pIC50 was no less than 7.00.

As to `COCCNC(=O)[C@@H](O)Cn1cc(-c2cc(C)cc(Nc3nccc(C(F)(F)F)n3)c2)cn1` [Example 6.13, (2S)-2-hydroxy-N-(2-methoxyethyl)-3-[4-(3-methyl-5-{[4-(trifluorometh-yl)pyrimidin-2-yl]amino}phenyl)-1H-pyrazol-1-yl]propanamide], the pIC50 was no less than 7.00.

In the case of `Cc1cc(Nc2cc(C(F)(F)F)ccn2)nc(-c2cnn(C3CCC(C(N)=O)c4ccccc43)c2)c1` (centres unmarked) [Example 6.14, 4-[4-(4-methyl-6-{[4-(trifluoro-methyl)-pyridin-2-yl]amino}-pyridin-2-yl)-1H-pyrazol-1-yl]-1,2,3,4-tetrahydro-naphthalene-1-carboxamide], the pIC50 is no less than 7.00.

Consider `Cc1cc(Nc2cc(C(F)(F)F)ccn2)nc(-c2cnn(C[C@H](O)C(N)=O)c2)c1` [Example 6.15, (2S)-2-hydroxy-3-[4-(4-methyl-6-{[4-(trifluoro-methyl)-pyridin-2-yl]amino}-pyridin-2-yl)-1H-pyrazol-1-yl]-propanamide], for which the pIC50 was no less than 7.00.

Turning to `Cc1cc(Nc2cc(C(F)(F)F)ccn2)nc(-c2cnn(CC(O)c3ccc(C(N)=O)cc3)c2)c1` (centres unmarked) [Example 6.16, 4-{1-hydroxy-2-[4-(4-methyl-6-{[4-(trifluoromethyl)-pyridin-2-yl]amino}-pyridin-2-yl)-1H-pyrazol-1-yl]ethyl}-benzamide], the pIC50 was no less than 7.00.

Regarding `Cc1cc(Nc2nccc(C(F)(F)F)n2)cc(-c2cnn(C[C@H](N)C(N)=O)c2)c1` [Example 7.2, 3-[4-(3-methyl-5-{[4-(trifluoro-methyl)pyrimidin-2-yl]amino}phenyl)-1H-pyrazol-1-yl]-1-alaninamide], the pIC50 is no less than 7.00.

Turning to `Cc1cc(Nc2nccc(C(F)(F)F)n2)cc(-c2cnn(C[C@@H](O)C(N)=O)c2)c1` [Example 7.3, (2R)-2-hydroxy-3-[4-(3-methyl-5-{[4-(trifluorometh-yl)pyrimidin-2-yl]amino}-phenyl)-1H-pyrazol-1-yl]propanamide], the pIC50 is no less than 7.00.

For the compound `Cc1cc(Nc2nccc(C(F)(F)F)n2)cc(-c2cnn(C[C@H](O)C(N)=O)c2)c1` [Example 7.4, (2S)-2-hydroxy-3-[4-(3-methyl-5-{[4-(trifluorometh-yl)pyrimidin-2-yl]amino}-phenyl)-1H-pyrazol-1-yl]propanamide], the pIC50 is no less than 7.00.

As for `Cc1cc(Nc2nccc(C(F)(F)F)n2)cc(-c2cnn(C(C)C(O)C(N)=O)c2)c1` (centres unmarked) [Example 7.5, 2-hydroxy-3-[4-(3-methyl-5-{[4-(trifluorometh-yl)pyrimidin-2-yl]amino}-phenyl)-1H-pyrazol-1-yl]butanamide], the pIC50 is no less than 7.00.

`Cc1cc(Nc2nccc(C(F)(F)F)n2)cc(-c2cnn(C(C)C(O)C(N)=O)c2)c1` (centres unmarked) [Example 7.6, 2-hydroxy-3-[4-(3-methyl-5-{[4-(trifluorometh-yl)pyrimidin-2-yl]amino}-phenyl)-1H-pyrazol-1-yl]butanamide]: the pIC50 was no less than 7.00.

`Cc1cc(Nc2nccc(C(F)(F)F)n2)cc(-c2cnn(C[C@@H](O)C(N)=O)c2)c1` [Example 8.2, (2R)-2-hydroxy-3-[4-(3-methyl-5-{[4-(trifluorometh-yl)pyrimidin-2-yl]amino}phenyl)-1H-pyrazol-1-yl]propanamide]: the pIC50 was no less than 7.00.

Take `Cc1cc(Nc2nccc(C(F)(F)F)n2)cc(-c2cnn(C[C@H](O)C(N)=O)c2)c1` [Example 8.4, (2S)-2-hydroxy-3-[4-(3-methyl-5-{[4-(trifluoromethyl)-pyrimidin-2-yl]amino}-phenyl)-1H-pyrazol-1-yl]propanamide]: the pIC50 is no less than 7.00.

On to `Cc1cc(Nc2nccc(OCCO)n2)cc(-c2cnn(C3CCC(C(N)=O)CC3)c2)c1` (centres unmarked) [Example 8.5, 4-[4-(3-{[4-(2-hydroxy-ethoxy)pyrimidin-2-yl]amino}-5-methylphenyl)-1H-pyrazol-1-yl]-cyclo-hexanecarboxamide], for which the pIC50 was no less than 7.00.

In the case of `Cc1cc(Nc2nccc(C(F)(F)F)n2)cc(-c2cnn(C3CCC(C(N)=O)CC3)c2)c1` (centres unmarked) [Example 8.6, 4-[4-(3-methyl-5-{[4-(trifluorometh-yl)pyrimidin-2-yl]amino}-phenyl)-1H-pyrazol-1-yl]cyclohexane-carboxamide], the pIC50 was no less than 7.00.
